In PMC12363935, “Unc-51 Like Kinase 3 (ULK3) is essential for autophagy and cell survival in multiple myeloma” (Research Square, 2025):

How the values were obtained:
[1] = system: ULK3 KO U266 MM cells; experiment: ULK3 KO U266 in vivo model; parameters: species or system mice; settings: ULK3 KO U266, 10 mg/kg/day subcutaneously, M-F from day 20
Source text: Supplementary Figure 7. ULK3 ablation suppresses MM cell growth. A. Immunoblotting for ULK3 expression in parental, NTC CTRL and ULK3 KO U266 cells. Of note, NTC CTRL and ULK3 KO were used for the in vivo ULK3 KO model. Densitometric quantification values are annotated on the blot. B. Mice (n = 20/group) were tail vein injected […]
with 1 x106 NTC CTRL and ULK3 KO U266 MM cells. […]
onset of the disease compared to NTC CTRL . (C) Representative confocal microscopy images of formalin fixed, paraffin embedded tumors (5-micron sections), stained for human mitochondria (hMITO) as a readout of MM cells colocalization. Alexa Fluor Plus 488 goat anti-mouse were used as secondary antibody. (D) MTS showing the inhibitory profile of MA9060 on NTC CTRL and ULK3 KO for U266 cell line. Treatment with MA9060 (0-100 uM) for 48h show reduced activity of MA9060 in ULK3 KO cell lines. E. Mice were divided respectively in two groups, vehicle control (n = 10, β-HCD Captisol) or MA9-060 (n = 10). Treatment started at day 20 (M-F, 10 mg/kg/day subcutaneously). MA9-060 treatment improves overall survival in the NTC CTRL arm (median 41 days post-tumor […]
38 For MA9 therapy efficacy, mice were treated with vehicle (n=10) or MA9 (10 mg/kg/day, 39 subcutaneously, M-F from day 20; n=10) (Supplementary Fig. 7E, F). Survival and toxicity 40 (weight, clinical signs) was monitored. […]

[2] = system: autophagy proteins in U266 MM cells; experiment: Immunoblot densitometry of autophagy proteins; type: cell-based, Human; settings: U266, 6h, MA9-060 1μM, JQ1 10μM, CQ 1μM
Protocol: Figure 3. Anti-myeloma activity of the MA9–060 autophagy inhibitor. A. Chemical structure of the autophagy inhibitor MA9–060. […] Chloroquine (CQ) (1μM) served as a positive control for autophagy inhibition. C. […] Hoechst 33342 dye appears here as the nuclear blue staining (Multiple comparisons ANOVA, p <0.0001).
157 5872S). Protein concentration was quantified by Thermo Scientific™ Pierce™ BCA™ Protein
30 μg protein was loaded to 10%-15% gel and ran at
159 100V for 2 hours. Later protein was transferred to PVDF membrane and blocked with 5% skimmed
160 milk in TBST (10 mM Tris/HCl pH8.0, 0.12M NaCl, 0.1% Tween 20) containing 5% BSA [8] for
163 at 4°C overnight. Membranes were washed 3 times,10 minutes with TBS. Then incubated with
164 appropriate secondary antibodies at 1:1000 ratio in skimmed milk or 2% BSA. The membranes
165 were washed again 3 times for 10 minutes with TBST. ECL reagents were added to the membrane
166 and blot was developed by LICOR Imaging Studio.
167 All immunoblotting assays were performed at least in three replicates and representative
168 images are shown. Commercially available antibodies and their dilutions are listed in
169 Supplementary Table 5. Immunoblotting images were acquired and quantified using LICOR
170 Image Studio Quant software. […]

SMILES: Cc1cnc(Nc2ccc(C3CCN(C)CC3)c(F)c2)nc1Nc1ccc(Cl)c(NS(=O)(=O)C(C)(C)C)c1 [MA9060]
- median overall survival [1]: 87 days
- LC3II densitometry ([2]; CTRL 0.34): 0.10
- LC3I densitometry ([2]; CTRL 3.01): 1.78
- ULK1 densitometry ([2]; CTRL 7.21): 2.44
- ULK3 densitometry ([2]; CTRL 15.17): 3.33
